Experimental data reported in patent US20130136809A1, “7-HYRDROXYFRULLANOLIDE ITS ANALOGS FOR PREVENTION CONTROL AND TREATMENT OF METABOLIC DISORDERS” (LAILA NUTRACEUTICALS, priority 2009, published 2013).

Columns and labels:
[1] = tested on: perilipin; experiment: Immunoblot of perilipin expression in 3T3-L1 adipocytes; format: cell-based, mouse; conditions: 1 ug/ml; normalized with actin
Method: (§1) Experimental protocol: Mouse pre-adipocyte 3T3-L1 cells are maintained in Dulbecco's Modified Eagles Medium (DMEM) supplemented with 2 mM glutamine, 4.5 g/L glucose and 10% fetal bovine serum. Equal number of cells was plated in each well of 24-well culture plates. Cells were pre-treated separately with 1 μg/mL 7-hydroxyfrullanolide for 2 h and followed by addition of differentiation medium containing 500 nM insulin, 1.0 μM dexamethasone, and 0.5 mM isobutylmethylxanthine (IBMX) for 48 h. Thereafter, cells were further incubated with post differentiation medium (DMEM containing 100 nM insulin) in presence or absence of 7-HF. […] Protein content was measured in Bradford method by using Coomassie blue dye and cell lysates were stored in aliquots at −80° C. until further use. The modulation of adipocyte differentiation markers such as Peroxisome proliferator-activated receptor gamma (PPARγ), CD36, adipocyte fatty acid binding protein (aP2); and intracellular lipid droplet surface associated protein, perilipin expression were evaluated by immunoblot assay.
(§2) Inhibition of protein expression of biomarker molecules adipocytes in presence or absence of 7-hydroxyfrullanolide (7-HF) was evaluated in immunoblot assay. […] Band intensities were calculated densitometrically and normalized with expression of actin in respective samples.

[2] = tested on: PPARγ; experiment: Immunoblot of PPARγ expression in 3T3-L1 adipocytes; format: cell-based, mouse; conditions: 1 ug/ml; normalized with actin
Method: as §1, §2

[3] = tested on: PTP-1B; experiment: PTP-1B activity in 3T3-L1 cell lysates (pNPP hydrolysis); format: cell-based, mouse; conditions: 1.0 or 2.5 μg/ml; 48 h
Method: Equal number of 3T3-L1 mouse preadipocytes was seeded into cell culture dishes. After 24 h, the cells were treated either with different concentrations of 7-HF or […] Sodium vanadate ([…]) for further 48 h. Thereafter, the washed cells were lysed with cell lysis buffer and the clarified at 14,000 g for 10 min at 4° C. The protein concentrations were calculated by Bradford method and the cell lysates were reacted with equal volume of substrate reagent containing 10 mM p-nitrophenyl phosphate (pNPP). After 1 h incubation at 37° C., the reaction was stopped with 1N NaOH and the developed color was read at 405 nm. The specific enzyme activity was calculated by using an extinction coefficient of 1.78×10^4 M^−1cm^−1 for pNPP at A405. The inhibition shown by 7-HF is depicted in Figure VII.

[4] = tested on: ADRP; experiment: Immunoblot of ADRP expression in 3T3-L1 adipocytes; format: cell-based, mouse; conditions: 1 ug/ml; normalized with actin
Method: as §1, §2

[5] = tested on: 3T3-L1 pre-adipocyte cells; experiment: Pro-lipolytic activity in differentiated adipocytes (free glycerol release); format: cell-based, mouse; conditions: 5 μg/mL; increase in glycerol release
Method: The lipolytic activity was assessed in mature adipocytes as per the procedure of Chemicon International, USA, by measuring free glycerol secreted into the culture medium. One hundred thousand 3T3-L1 […] pre-adipocyte cells in Dulbecco's Modified Eagles Medium (DMEM) containing 10% Fetal Bovine Serum (FBS) were taken into each well of a 24-well plate and incubated for 48 h at 37° C. and 5% CO2. The differentiation of pre-adipocyte cells was initiated in a differentiation medium containing 10 µg/ml insulin, 1.0 µM dexamethasone, and 0.5 mM isobutylmethylxanthine (IBMX). The cells were differentiated for 5 days and then the culture medium was removed. The monolayer was washed twice with wash solution (Hank's balanced salt solution), and then 250 µL of incubation solution (Hank's balanced salt solution plus 2% bovine serum albumin) was added to the wells in triplicate in presence or absence of 7-hydroxyfrullanolide or its analogs or the extracts containing 7-HF, and the cells were further incubated for 16 h. To measure lipolysis, 200 μL of free glycerol assay reagent was added to 25 µL of culture supernatants and controls containing glycerol standard. The samples and the controls were incubated for 15 min, and the absorbance was read at 540 nm. A standard curve constructed from the glycerol was used to calculate the concentration of free glycerol in the culture supernatants. The percentage increase in glycerol concentration in the sample solutions compared to the control containing the known concentrations of glycerol corresponds to the percentage acceleration of lipolysis by test compound.

[6] = tested on: adiponectin; experiment: Western immunoblot of adiponectin in 3T3-L1 adipocytes; format: cell-based, mouse; conditions: 1 μg/ml; 3T3-L1 mature adipocytes
Method: as §1
Inhibition of protein expression of biomarker molecules adipocytes in presence or absence of 7-hydroxyfrullanolide (7-HF) was evaluated in immunoblot assay. […] Band intensities were calculated densitometrically and normalized with expression of actin in respective samples. […]

[7] = tested on: J774 mouse macrophage cells; experiment: Lipid accumulation in high glucose induced macrophage cells (in vitro model of atherosclerosis); format: cell-based; conditions: 1 μg/ml; 600 mg/dL glucose, 5 days
Method: Experimental protocol: This was evaluated in glucose induced J774, mouse macrophage cells. Briefly, the cells were cultured in DMEM with 2 mM Glutamine, 100 U/mL penicillin, […] streptomycin and 10% fetal bovine serum (Hyclone, Logan, Utah). Equal number of cells was seeded into 35 mm petri dishes (Corning, USA) one day before the experiment. The culture media was replaced with fresh, glucose free DMEM supplemented with 10% fetal bovine serum. 7-HF was diluted at […] and all cultures were pre-incubated for 2 hours at 5% CO2 at 37° C., and then incubated with 600 mg/dL of glucose for 5 days. Representative photomicrographs showing inhibition of lipid accumulation by 7-HF in high glucose induced macrophage cells of an in vitro model of atherosclerosis are shown in Figure IV. The control culture was supplemented with 100 mg/dL glucose. The cells were harvested and lysed with lysis buffer. Cell lysates were clarified at 14,000 g. Protein concentration was measured by Bradford method.

[8] = tested on: human endothelial cells; experiment: Nitrite assay (Griess reagent), nitric oxide production; format: cell-based; conditions: 0.1, 0.25, 0.50, 1.00 ng/ml; 24 h
Method: Equal number (5000 cells) of human endothelial cells was plated in each well of a 96-well cell culture plate. The cells were treated with various concentrations (0.1, 0.25, 0.5 and 1.0 ng/ml) of 7-HF for 24 h. The control cultures received 0.01% (v/v) DMSO as the vehicle. After 24 h, the culture supernatants were collected and mixed with equal volume of Griess reagent [1:1 mixture of NED solution (0.1% N-1-napthylethulenediamine dihydrochloride in water) and Sulfanylamide solution (1% sulfanilamide in 5% phosphoric acid)]. The reaction was allowed for 10 min at room temperature. Finally, the color reaction was read at 550 nm in a micro-plate reader (BioRad, USA). Known concentrations of sodium nitrite were reacted to obtain a standard curve. Modulation of nitrite production in 7-HF treated cultures was quantitatively assessed by extrapolating the absorbance readings obtained from the test samples into the standard plot.

SMILES: C=C1C(=O)O[C@H]2C3=C(C)CCC[C@]3(C)CC[C@@]12O [7-HF (1), 7-hydroxyfrullanolide]
- perilipin protein expression [1]: down-regulation
- PPARγ protein expression [2]: down-regulation
- PTP-1B activity [3]: significant inhibition
- ADRP protein expression [4]: down-regulation
- % acceleration of lipolysis [5]: 47.8%
- adiponectin protein expression [6]: potent upregulation
- lipid accumulation in high glucose induced macrophage cells [7]: inhibited lipid accumulation
- NO concentration (nitrite) in cell culture supernatant [8]: significant and dose dependent increase
